Reference: the kinase profiling compilation of Christmann-Franck et al. (2016)

Columns and labels:
Test in all cases: KINOMEscan competition binding
Conditions in all cases: compound 10.0 µM
HUNK (human) = HUNK (human) (UniProt P57058)
CDKL3 (human) = CDKL3 (human) (UniProt Q8IVW4)
PIK3C2B (human) = PIK3C2B (human) (UniProt O00750)
CDKL2 (human) = CDKL2 (human) (UniProt Q92772)
[1] = tested on: RET (human), P07949 [V804L]
DSTYK (human) = DSTYK (human) (UniProt Q6XUX3)
TLK2 (human) = TLK2 (human) (UniProt Q86UE8)
ALK (human) = ALK (human) (UniProt Q9UM73)
AKT1 (human) = AKT1 (human) (UniProt P31749)
ERN1 (human) = ERN1 (human) (UniProt O75460)
[2] = tested on: MET (human), P08581 [Y1235D]
FLT1 (human) = FLT1 (human) (UniProt P17948)
RPS6KA1 KD1 (human) = RPS6KA1 KD1 (human) (UniProt Q15418)
TNK1 (human) = TNK1 (human) (UniProt Q13470)
MYO3B (human) = MYO3B (human) (UniProt Q8WXR4)
FES (human) = FES (human) (UniProt P07332)
MAP3K7 (human) = MAP3K7 (human) (UniProt O43318)
NEK7 (human) = NEK7 (human) (UniProt Q8TDX7)
[3] = tested on: MET (human), P08581 [M1250T]
PKN1 (human) = PKN1 (human) (UniProt Q16512)
DAPK2 (human) = DAPK2 (human) (UniProt Q9UIK4)
AURKA (human) = AURKA (human) (UniProt O14965)
CLK2 (human) = CLK2 (human) (UniProt P49760)
MARK1 (human) = MARK1 (human) (UniProt Q9P0L2)
PRKCD (human) = PRKCD (human) (UniProt Q05655)
RPS6KA4 KD1 (human) = RPS6KA4 KD1 (human) (UniProt O75676)
PRKG1 (human) = PRKG1 (human) (UniProt Q13976)
BMPR1A (human) = BMPR1A (human) (UniProt P36894)
RPS6KA4 KD2 (human) = RPS6KA4 KD2 (human) (UniProt O75676)
PRKD1 (human) = PRKD1 (human) (UniProt Q15139)
MYLK4 (human) = MYLK4 (human) (UniProt Q86YV6)
TYRO3 (human) = TYRO3 (human) (UniProt Q06418)
BRSK1 (human) = BRSK1 (human) (UniProt Q8TDC3)
STK32A (human) = STK32A (human) (UniProt Q8WU08)
CDK17 (human) = CDK17 (human) (UniProt Q00537)
EPHA1 (human) = EPHA1 (human) (UniProt P21709)
VRK2 (human) = VRK2 (human) (UniProt Q86Y07)
DYRK1A (human) = DYRK1A (human) (UniProt Q13627)
[4] = tested on: EGFR (human), P00533 [T790M/L858R]
[5] = tested on: PIK3CA (human), P42336 [E542K]
MAPK9 (human) = MAPK9 (human) (UniProt P45984)

HUNK (human), sequence (P57058 whole entry, looked up): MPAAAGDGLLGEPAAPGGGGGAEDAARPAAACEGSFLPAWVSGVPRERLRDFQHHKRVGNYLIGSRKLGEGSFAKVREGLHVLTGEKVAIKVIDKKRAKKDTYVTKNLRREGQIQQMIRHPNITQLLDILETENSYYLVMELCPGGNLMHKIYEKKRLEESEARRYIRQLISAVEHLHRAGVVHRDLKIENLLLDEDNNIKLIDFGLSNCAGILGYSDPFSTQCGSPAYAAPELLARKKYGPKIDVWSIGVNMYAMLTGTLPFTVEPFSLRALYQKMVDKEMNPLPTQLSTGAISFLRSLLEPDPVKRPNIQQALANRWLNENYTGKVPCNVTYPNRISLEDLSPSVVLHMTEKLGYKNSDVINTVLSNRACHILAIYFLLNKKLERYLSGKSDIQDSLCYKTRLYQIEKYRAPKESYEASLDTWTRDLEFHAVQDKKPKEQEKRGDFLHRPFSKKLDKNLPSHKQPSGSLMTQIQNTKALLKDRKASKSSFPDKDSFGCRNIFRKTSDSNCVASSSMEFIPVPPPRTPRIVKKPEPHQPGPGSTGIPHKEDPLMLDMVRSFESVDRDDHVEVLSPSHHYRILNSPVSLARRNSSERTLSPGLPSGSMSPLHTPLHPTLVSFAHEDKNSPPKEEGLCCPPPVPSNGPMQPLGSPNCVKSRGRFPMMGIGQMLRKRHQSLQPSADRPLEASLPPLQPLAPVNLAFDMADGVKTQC
CLK2 (human), sequence (P49760 whole entry, looked up): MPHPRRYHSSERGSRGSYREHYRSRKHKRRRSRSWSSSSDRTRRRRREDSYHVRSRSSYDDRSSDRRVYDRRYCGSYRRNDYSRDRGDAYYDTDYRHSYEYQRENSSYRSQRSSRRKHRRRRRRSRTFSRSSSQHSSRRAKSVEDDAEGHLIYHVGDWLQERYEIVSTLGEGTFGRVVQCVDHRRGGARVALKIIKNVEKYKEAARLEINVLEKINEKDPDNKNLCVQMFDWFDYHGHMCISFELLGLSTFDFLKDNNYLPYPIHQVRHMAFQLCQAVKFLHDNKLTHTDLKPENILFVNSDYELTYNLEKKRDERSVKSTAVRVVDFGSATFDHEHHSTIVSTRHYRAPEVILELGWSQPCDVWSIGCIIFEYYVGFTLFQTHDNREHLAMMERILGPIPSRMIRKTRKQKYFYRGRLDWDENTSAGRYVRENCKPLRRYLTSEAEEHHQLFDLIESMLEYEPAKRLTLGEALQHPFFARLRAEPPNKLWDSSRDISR
BMPR1A (human), sequence (P36894 whole entry, looked up): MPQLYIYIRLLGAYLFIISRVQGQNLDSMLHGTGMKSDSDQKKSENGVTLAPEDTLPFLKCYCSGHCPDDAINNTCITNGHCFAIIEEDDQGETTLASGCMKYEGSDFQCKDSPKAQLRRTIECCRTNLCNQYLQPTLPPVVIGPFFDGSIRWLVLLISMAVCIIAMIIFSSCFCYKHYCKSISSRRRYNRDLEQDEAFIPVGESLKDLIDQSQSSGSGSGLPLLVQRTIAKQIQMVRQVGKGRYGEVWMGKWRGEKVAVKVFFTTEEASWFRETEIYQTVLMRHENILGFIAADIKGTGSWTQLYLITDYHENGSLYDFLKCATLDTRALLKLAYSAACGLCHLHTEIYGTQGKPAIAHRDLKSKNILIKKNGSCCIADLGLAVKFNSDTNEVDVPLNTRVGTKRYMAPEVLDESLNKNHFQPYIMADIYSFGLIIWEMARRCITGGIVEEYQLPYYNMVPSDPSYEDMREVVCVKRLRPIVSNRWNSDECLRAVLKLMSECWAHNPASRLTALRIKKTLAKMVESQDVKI
MAP3K7 (human), sequence (O43318 whole entry, looked up): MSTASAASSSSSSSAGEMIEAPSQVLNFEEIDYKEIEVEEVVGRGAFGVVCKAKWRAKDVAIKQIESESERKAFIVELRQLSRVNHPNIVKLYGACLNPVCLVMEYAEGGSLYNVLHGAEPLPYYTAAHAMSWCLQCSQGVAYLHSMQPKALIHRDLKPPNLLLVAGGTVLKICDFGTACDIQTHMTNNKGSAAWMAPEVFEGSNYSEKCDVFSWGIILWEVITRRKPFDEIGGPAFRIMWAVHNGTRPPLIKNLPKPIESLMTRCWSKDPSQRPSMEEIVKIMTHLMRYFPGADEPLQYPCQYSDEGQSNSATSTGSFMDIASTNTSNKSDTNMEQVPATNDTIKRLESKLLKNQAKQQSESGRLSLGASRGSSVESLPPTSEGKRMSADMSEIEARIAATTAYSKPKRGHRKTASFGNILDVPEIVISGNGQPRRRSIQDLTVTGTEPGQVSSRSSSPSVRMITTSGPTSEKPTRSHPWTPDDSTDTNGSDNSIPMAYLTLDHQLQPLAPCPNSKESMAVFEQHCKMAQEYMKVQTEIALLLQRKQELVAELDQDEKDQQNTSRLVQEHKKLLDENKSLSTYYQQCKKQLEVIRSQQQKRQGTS
TLK2 (human), sequence (Q86UE8 whole entry, looked up): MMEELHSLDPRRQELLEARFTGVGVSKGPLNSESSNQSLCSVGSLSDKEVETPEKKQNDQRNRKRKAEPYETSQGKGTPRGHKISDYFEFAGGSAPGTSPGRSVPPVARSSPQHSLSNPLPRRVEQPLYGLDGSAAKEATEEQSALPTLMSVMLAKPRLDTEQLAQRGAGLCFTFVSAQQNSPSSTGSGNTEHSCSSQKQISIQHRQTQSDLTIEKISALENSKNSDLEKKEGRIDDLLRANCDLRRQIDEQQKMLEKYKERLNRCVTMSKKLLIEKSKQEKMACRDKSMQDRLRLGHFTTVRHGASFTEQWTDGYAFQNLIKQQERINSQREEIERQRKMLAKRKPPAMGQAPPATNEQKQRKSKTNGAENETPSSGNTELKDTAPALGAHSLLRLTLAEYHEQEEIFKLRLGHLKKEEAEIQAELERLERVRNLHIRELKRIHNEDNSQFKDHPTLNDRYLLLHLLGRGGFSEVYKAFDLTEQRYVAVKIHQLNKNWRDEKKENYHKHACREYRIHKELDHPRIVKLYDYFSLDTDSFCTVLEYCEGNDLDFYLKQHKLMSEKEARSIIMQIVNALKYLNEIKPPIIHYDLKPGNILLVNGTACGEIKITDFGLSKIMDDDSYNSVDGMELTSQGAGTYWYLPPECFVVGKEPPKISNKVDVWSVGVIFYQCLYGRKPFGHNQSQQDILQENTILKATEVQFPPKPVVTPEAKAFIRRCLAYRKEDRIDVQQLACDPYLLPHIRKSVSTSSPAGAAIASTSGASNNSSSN
PRKG1 (human), sequence (Q13976 whole entry, looked up): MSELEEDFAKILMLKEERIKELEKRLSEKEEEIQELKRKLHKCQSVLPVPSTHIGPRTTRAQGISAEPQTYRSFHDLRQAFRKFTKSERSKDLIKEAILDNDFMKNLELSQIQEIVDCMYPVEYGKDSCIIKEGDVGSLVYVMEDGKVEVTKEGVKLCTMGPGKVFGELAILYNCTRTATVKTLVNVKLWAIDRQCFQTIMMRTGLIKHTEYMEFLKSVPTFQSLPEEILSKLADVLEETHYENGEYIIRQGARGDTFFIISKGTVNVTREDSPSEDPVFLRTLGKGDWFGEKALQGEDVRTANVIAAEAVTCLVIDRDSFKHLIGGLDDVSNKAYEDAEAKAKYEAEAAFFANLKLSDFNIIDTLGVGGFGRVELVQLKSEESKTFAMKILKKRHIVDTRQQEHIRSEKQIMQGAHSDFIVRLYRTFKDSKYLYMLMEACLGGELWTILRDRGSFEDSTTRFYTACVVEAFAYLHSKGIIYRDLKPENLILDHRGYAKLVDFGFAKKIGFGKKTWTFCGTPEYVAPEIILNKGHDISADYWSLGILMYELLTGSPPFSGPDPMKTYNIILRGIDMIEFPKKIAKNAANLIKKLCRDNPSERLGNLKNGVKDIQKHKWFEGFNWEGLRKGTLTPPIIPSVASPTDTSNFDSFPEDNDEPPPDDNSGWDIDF
MARK1 (human), sequence (Q9P0L2 whole entry, looked up): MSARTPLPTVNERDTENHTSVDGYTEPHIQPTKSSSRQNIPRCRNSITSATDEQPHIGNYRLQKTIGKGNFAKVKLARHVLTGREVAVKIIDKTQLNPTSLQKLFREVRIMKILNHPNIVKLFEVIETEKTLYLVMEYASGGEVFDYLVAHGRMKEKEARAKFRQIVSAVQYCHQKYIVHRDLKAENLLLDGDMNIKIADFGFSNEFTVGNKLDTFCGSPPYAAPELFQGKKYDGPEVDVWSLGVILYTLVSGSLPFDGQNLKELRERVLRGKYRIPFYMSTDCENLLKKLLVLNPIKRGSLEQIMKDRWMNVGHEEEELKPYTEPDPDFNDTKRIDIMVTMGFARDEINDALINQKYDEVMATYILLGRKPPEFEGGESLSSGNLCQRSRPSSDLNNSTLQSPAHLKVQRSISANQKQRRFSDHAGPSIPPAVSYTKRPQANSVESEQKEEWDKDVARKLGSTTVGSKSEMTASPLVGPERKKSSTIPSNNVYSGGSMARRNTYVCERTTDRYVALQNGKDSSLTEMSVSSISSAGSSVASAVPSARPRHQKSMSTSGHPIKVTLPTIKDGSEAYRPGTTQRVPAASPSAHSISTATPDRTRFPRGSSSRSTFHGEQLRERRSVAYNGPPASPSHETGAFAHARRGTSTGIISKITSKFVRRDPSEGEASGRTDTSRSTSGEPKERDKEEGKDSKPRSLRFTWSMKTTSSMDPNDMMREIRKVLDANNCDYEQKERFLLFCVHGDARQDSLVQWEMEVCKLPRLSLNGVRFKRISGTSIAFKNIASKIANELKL
MYLK4 (human), sequence (Q86YV6 whole entry, looked up): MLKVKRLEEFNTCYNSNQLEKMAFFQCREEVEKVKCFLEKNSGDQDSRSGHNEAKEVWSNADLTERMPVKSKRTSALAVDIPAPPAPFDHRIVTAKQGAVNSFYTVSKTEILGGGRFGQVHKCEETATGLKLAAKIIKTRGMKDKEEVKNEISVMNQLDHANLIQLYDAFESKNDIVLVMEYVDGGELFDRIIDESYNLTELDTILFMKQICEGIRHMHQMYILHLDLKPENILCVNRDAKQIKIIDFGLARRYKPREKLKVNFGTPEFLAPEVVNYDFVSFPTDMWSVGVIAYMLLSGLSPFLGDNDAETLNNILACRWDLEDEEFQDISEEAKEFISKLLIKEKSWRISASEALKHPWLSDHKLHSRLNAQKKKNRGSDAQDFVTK

Structure (SMILES) | kinase still bound, per cent of control (HUNK (human)) [%] | per cent of control (CDKL3 (human)) [%] | kinase still bound, per cent of control (PIK3C2B (human)) [%] | per cent of control (CDKL2 (human)) [%] | kinase still bound, per cent of control [1] [%] | kinase still bound, per cent of control (DSTYK (human)) [%] | kinase still bound, per cent of control (TLK2 (human)) [%] | kinase still bound, per cent of control (ALK (human)) [%] | kinase still bound, per cent of control (AKT1 (human)) [%] | kinase still bound, per cent of control (ERN1 (human)) [%] | kinase still bound, per cent of control (FLT1 (human)) [%] | kinase still bound, per cent of control (RPS6KA1 KD1 (human)) [%] | kinase still bound, per cent of control (TNK1 (human)) [%] | kinase still bound, per cent of control (MYO3B (human)) [%] | kinase still bound, per cent of control (FES (human)) [%] | kinase still bound, per cent of control (MAP3K7 (human)) [%] | kinase still bound, per cent of control (NEK7 (human)) [%] | kinase still bound, per cent of control (PKN1 (human)) [%] | kinase still bound, per cent of control (AURKA (human)) [%] | kinase still bound, per cent of control (CLK2 (human)) [%] | other results
CC(C)n1nc(-c2cc3cc(O)ccc3[nH]2)c2c(N)ncnc21 | 99 | 100 | 5.6 | 75 | 12 | 5.8 | 79 | 41 | 100 | 31 | 25 | 32 | 34 | 19 | 100 | 22 | 100 | 85 | 100 | 9.7 | kinase still bound, per cent of control [2]: 88%; kinase still bound, per cent of control [3]: 100%; kinase still bound, per cent of control (DAPK2 (human)): 3.8%; kinase still bound, per cent of control (MARK1 (human)): 81%; kinase still bound, per cent of control (PRKCD (human)): 39%; kinase still bound, per cent of control (RPS6KA4 KD1 (human)): 100%; kinase still bound, per cent of control (PRKG1 (human)): 100%; kinase still bound, per cent of control (BMPR1A (human)): 2.8%; kinase still bound, per cent of control (RPS6KA4 KD2 (human)): 0%; kinase still bound, per cent of control (PRKD1 (human)): 100%; kinase still bound, per cent of control (MYLK4 (human)): 43%; kinase still bound, per cent of control (TYRO3 (human)): 77%; kinase still bound, per cent of control (BRSK1 (human)): 1.6%; kinase still bound, per cent of control (STK32A (human)): 1.8%; per cent of control (CDK17 (human)): 100%; kinase still bound, per cent of control (EPHA1 (human)): 2.7%; kinase still bound, per cent of control (VRK2 (human)): 100%; kinase still bound, per cent of control (DYRK1A (human)): 27%
CCC(=O)N1CCN(c2ccc(-n3c(=O)ccc4cnc5ccc(-c6cnc7ccccc7c6)cc5c43)cc2C(F)(F)F)CC1 | 91 | 92 | 25 | 58 | 66 | 28 | 100 | 80 | 91 | 100 | 79 | 68 | 6.8 | 100 | 41 | 47 | 90 | 92 | 100 | 65 | kinase still bound, per cent of control [4]: 100%; kinase still bound, per cent of control [2]: 100%; kinase still bound, per cent of control [3]: 79%; kinase still bound, per cent of control [5]: 1%; kinase still bound, per cent of control (MARK1 (human)): 100%; kinase still bound, per cent of control (PRKCD (human)): 82%; kinase still bound, per cent of control (RPS6KA4 KD1 (human)): 100%; kinase still bound, per cent of control (PRKG1 (human)): 86%; kinase still bound, per cent of control (BMPR1A (human)): 45%; kinase still bound, per cent of control (RPS6KA4 KD2 (human)): 100%; kinase still bound, per cent of control (PRKD1 (human)): 99%; kinase still bound, per cent of control (MYLK4 (human)): 83%; kinase still bound, per cent of control (MAPK9 (human)): 40%; kinase still bound, per cent of control (TYRO3 (human)): 31%; kinase still bound, per cent of control (BRSK1 (human)): 78%; kinase still bound, per cent of control (STK32A (human)): 100%; per cent of control (CDK17 (human)): 97%; kinase still bound, per cent of control (EPHA1 (human)): 62%; kinase still bound, per cent of control (VRK2 (human)): 100%; kinase still bound, per cent of control (DYRK1A (human)): 71%
COC(=O)Nc1ccc(-c2nc(N3CCOCC3)c3cnn(C4CCN(C(=O)OC)CC4)c3n2)cc1 | 95 | 64 | 100 | 94 | 84 | 100 | 96 | 100 | 82 | 100 | 100 | 100 | 100 | 97 | 100 | 70 | 77 | 97 | 85 | 57 | kinase still bound, per cent of control [4]: 100%; kinase still bound, per cent of control [5]: 5.2%; kinase still bound, per cent of control (DAPK2 (human)): 96%; kinase still bound, per cent of control (MARK1 (human)): 100%; kinase still bound, per cent of control (PRKCD (human)): 99%; kinase still bound, per cent of control (RPS6KA4 KD1 (human)): 94%; kinase still bound, per cent of control (PRKG1 (human)): 100%; kinase still bound, per cent of control (BMPR1A (human)): 100%; kinase still bound, per cent of control (RPS6KA4 KD2 (human)): 88%; kinase still bound, per cent of control (PRKD1 (human)): 95%; kinase still bound, per cent of control (MYLK4 (human)): 99%; kinase still bound, per cent of control (MAPK9 (human)): 100%; kinase still bound, per cent of control (TYRO3 (human)): 100%; kinase still bound, per cent of control (BRSK1 (human)): 95%; kinase still bound, per cent of control (STK32A (human)): 100%; per cent of control (CDK17 (human)): 100%; kinase still bound, per cent of control (EPHA1 (human)): 100%; kinase still bound, per cent of control (VRK2 (human)): 100%; kinase still bound, per cent of control (DYRK1A (human)): 88%
